The target of this assay is T1, α-synuclein (recombinant fibrils) (Homo sapiens, UniProt P37840).
T1 construct: gene SNCA; recombinant human α-syn fibrils (pET-3a construct)
As to the kind of experiment: radioligand saturation binding (filtration) on recombinant fibrils.

As for `COc1ccc(/C=C/c2cn(-c3ccccc3)nn2)cc1` [50.1, KAC-50.1], the equilibrium dissociation constant (Kd) amounted to 0.035 µM.

In general, Kd refers to the equilibrium constant for the complex coming apart.

The values above are taken from paper PMC11587505, “Identification and In Vitro and In Vivo Characterization of KAC-50.1 as a Potential α-Synuclein PET Radioligand” (ACS Chemical Neuroscience, 2024).
